# Experimental data taken from publication PMC4594923, “Food Polyphenols Fail to Cause a Biologically Relevant Reduction of COX-2 Activity” (PLoS ONE, 2015).
# Entries after “also recorded” stand apart in the source; their conditions may differ. Marks after values point to notes of the source that are not given here.
# Experiments:
# [1] = system: arachidonic acid (AA) cascade; assay: plasma oxylipin/PG levels in LPS induced sepsis in mice; format: in vivo, C57BL/6N mice;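 note: male C57BL/6N mice given LPS, plasma oxylipins quantified by LC-MS after solid-phase extraction, pretreatment or vehicle given intraperitoneally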
# Excerpt: Twelve week old male C57BL/6N mice (Charles River, Sulzfeld, Germany) were used for all experiments. C57BL/6 male mice (H2^b, 11–13 weeks of age) were obtained from Charles River (Sulzfeld, Germany). Animals were cared for in accordance with the institution’s guidelines for experimental animals and with the guidelines of the American Physiological Society. […] Mice were monitored closely and if they appeared compromised (i.e. inactivity, no intake of food or water) after compound or LPS injection the experiment was terminated.
# Oxylipin levels were analyzed in plasma and tissues by LC-MS following SPE extraction of 200 μl plasma or tissue homogenate (50 mg) on Chromabond C18 ec cartridges (Machery-Nagel, Düren, Germany) [19].
# GraphPad Prism 5.0 (GraphPad Software, San Diego, USA) was used for data analysis, the fitting of dose response curves and calculation of the IC50 values. Statistical differences were determined by Dunnetts test (LPS vs. other groups).
# [2] = target: T1, ovine recombinant COX–1 (Ovis aries, UniProt P05979); assay: cell-free COX–1 enzyme assay (PGE2 formation, LC-MS); format: biochemical; set-up: purchased Cayman Chemicals/ Biomol, Hamburg, Germany
# T1 sequence (P05979 25-600): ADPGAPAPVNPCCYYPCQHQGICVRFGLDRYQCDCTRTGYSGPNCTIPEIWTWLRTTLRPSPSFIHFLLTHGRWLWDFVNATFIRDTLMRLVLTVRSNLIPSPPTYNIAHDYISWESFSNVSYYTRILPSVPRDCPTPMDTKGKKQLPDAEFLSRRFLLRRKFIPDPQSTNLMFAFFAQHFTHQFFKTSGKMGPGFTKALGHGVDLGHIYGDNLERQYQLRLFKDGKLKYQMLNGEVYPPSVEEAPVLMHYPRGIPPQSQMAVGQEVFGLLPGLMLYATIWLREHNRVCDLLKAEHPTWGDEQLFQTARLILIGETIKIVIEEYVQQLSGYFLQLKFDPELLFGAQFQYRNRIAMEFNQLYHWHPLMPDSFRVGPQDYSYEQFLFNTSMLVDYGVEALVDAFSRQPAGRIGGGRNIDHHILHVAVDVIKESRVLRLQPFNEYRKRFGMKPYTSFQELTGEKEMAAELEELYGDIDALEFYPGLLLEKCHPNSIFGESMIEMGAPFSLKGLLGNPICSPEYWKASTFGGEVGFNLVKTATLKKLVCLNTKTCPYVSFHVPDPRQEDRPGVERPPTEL
# [3] = mice, compound i. p. 100 mg/kg bw 2 h before LPS (10 mg/kg bw i. p.), 24 h after LPS, vs. LPS group
# [4] = plasma 24 h after LPS treatment, LPS +, mean
compound,measurement,setting,value
"Oc1ccc(/C=C/c2cc(O)cc3c2[C@@H](c2cc(O)cc(O)c2)[C@H](c2ccc(O)cc2)O3)cc1 [ε-Viniferin, ε-viniferin]",plasma 8-iPF2α level (non-enzymatically formed autoxidation marker),[1]; [3],high levels
same,"plasma 13,14-dihydro-15-keto-PGE1 level",[1]; [3],high levels
same,"plasma 13,14-dihydro-15-keto-PGF2α level",[1]; [3],high levels
same,plasma PGF2α level,[1]; [3],high levels
same,"1a,1b-dihomo-PGF2α concentration in plasma",[1]; [4],0.42^† nM
same,"4,5-DiHDPE concentration in plasma",[1]; [4],23^‡ nM
same,4-HDHA concentration in plasma,[1]; [4],1.7 nM
same,5(6)-EpETrE concentration in plasma,[1]; [4],11 nM
same,"5,6-DiHETrE concentration in plasma",[1]; [4],1.3^‡ nM
same,5-HEPE concentration in plasma,[1]; [4],0.25^* nM
same,5-HETE concentration in plasma,[1]; [4],2.8 nM
same,5-iPF2α concentration in plasma,[1]; [4],0.91^‡ nM
same,5-oxo-ETE concentration in plasma,[1]; [4],4.7 nM
same,6-keto-PGF1α concentration in plasma,[1]; [4],2.8 nM
same,"7,8-DiHDPE concentration in plasma",[1]; [4],1.1 nM
same,7-HDHA concentration in plasma,[1]; [4],0.55 nM
same,8(9)-EpETrE concentration in plasma,[1]; [4],2.5 nM
same,"8,9-DiHETrE concentration in plasma",[1]; [4],2.5 nM
same,8-HDHA concentration in plasma,[1]; [4],3.8 nM
same,8-HEPE concentration in plasma,[1]; [4],1.2^† nM
same,8-HETE concentration in plasma,[1]; [4],12^* nM
same,8-iPF2a concentration in plasma,[1]; [4],0.30^* nM
same,9(10)-EpODE concentration in plasma,[1]; [4],6.5 nM
same,9(10)-EpOME concentration in plasma,[1]; [4],61 nM
same,9(10)-Epoxystearic acid concentration in plasma,[1]; [4],37 nM
same,"9,10,13-TriHOME concentration in plasma",[1]; [4],2.2 nM
same,"9,10-DiHODE concentration in plasma",[1]; [4],4.5 nM
same,"9,10-DiHOME concentration in plasma",[1]; [4],30 nM
same,"9,10-Dihydroxystearic acid concentration in plasma",[1]; [4],10 nM
same,"9,12,13-TriHOME concentration in plasma",[1]; [4],17 nM
same,9-HODE concentration in plasma,[1]; [4],210 nM
same,9-HOTrE concentration in plasma,[1]; [4],12 nM
same,9-oxo-ODE concentration in plasma,[1]; [4],38 nM
same,10(11)-EpDPE concentration in plasma,[1]; [4],3.9 nM
same,"10,11-DiHDPE concentration in plasma",[1]; [4],0.62^* nM
same,10-HDHA concentration in plasma,[1]; [4],27^† nM
same,11(12)-EpETrE concentration in plasma,[1]; [4],2.6 nM
same,"11,12-DiHETE concentration in plasma",[1]; [4],0.38^‡ nM
same,"11,12-DiHETrE concentration in plasma",[1]; [4],2.0 nM
same,11-HDHA concentration in plasma,[1]; [4],0.91 nM
same,11-HETE concentration in plasma,[1]; [4],3.8^* nM
same,12(13)-EpODE concentration in plasma,[1]; [4],3.3 nM
same,12(13)-EpOME concentration in plasma,[1]; [4],48 nM
same,"12,13-DiHODE concentration in plasma",[1]; [4],2.8 nM
same,"12,13-DiHOME concentration in plasma",[1]; [4],110^* nM
same,12-HEPE concentration in plasma,[1]; [4],239^† nM
same,12-HETE concentration in plasma,[1]; [4],1700^† nM
same,13(14)-EpDPE concentration in plasma,[1]; [4],2.9 nM
same,"13,14-DiHDPE concentration in plasma",[1]; [4],0.55^* nM
same,"13,14-dihydro-15-keto-PGE1 concentration in plasma",[1]; [4],0.34^† nM
same,"13,14dihydro-15-keto-PGF2α concentration in plasma",[1]; [4],2.1^‡ nM
same,13-HDHA concentration in plasma,[1]; [4],3.9^* nM
same,13-HODE concentration in plasma,[1]; [4],540 nM
same,13-HOTrE concentration in plasma,[1]; [4],61 nM
same,13-oxo-ODE concentration in plasma,[1]; [4],8.3 nM
same,14(15)-EpETE concentration in plasma,[1]; [4],0.18^* nM
same,14(15)-EpETrE concentration in plasma,[1]; [4],2.4 nM
same,"14,15-DiHETE concentration in plasma",[1]; [4],0.36 nM
same,"14,15-DiHETrE concentration in plasma",[1]; [4],2.5 nM
same,14-HDHA concentration in plasma,[1]; [4],800^† nM
same,15(16)-EpODE concentration in plasma,[1]; [4],2.9 nM
same,15(S)-HETrE concentration in plasma,[1]; [4],5.7^‡ nM
same,"15,16-DiHODE concentration in plasma",[1]; [4],53 nM
same,15-HEPE concentration in plasma,[1]; [4],1.5^‡ nM
same,15-HETE concentration in plasma,[1]; [4],7.9^† nM
same,15-oxo-ETE concentration in plasma,[1]; [4],0.34 nM
same,16(17)-EpDPE concentration in plasma,[1]; [4],2.8 nM
same,"16,17-DiHDPE concentration in plasma",[1]; [4],1.1^† nM
same,16-HDHA concentration in plasma,[1]; [4],1.1 nM
same,17(18)-EpETE concentration in plasma,[1]; [4],1.1 nM
same,"17,18-DiHETE concentration in plasma",[1]; [4],1.8 nM
same,17-HDHA concentration in plasma,[1]; [4],39^† nM
same,18-HEPE concentration in plasma,[1]; [4],0.81 nM
same,19(20)-EpDPE concentration in plasma,[1]; [4],13 nM
same,"19,20-DiHDPE concentration in plasma",[1]; [4],14 nM
same,20-HDHA concentration in plasma,[1]; [4],3.6 nM
same,20-HEPE concentration in plasma,[1]; [4],5.7^† nM
same,20-HETE concentration in plasma,[1]; [4],2.7^‡ nM
same,EKODE concentration in plasma,[1]; [4],16 nM
same,PGD2 concentration in plasma,[1]; [4],0.90 nM
same,PGE2 concentration in plasma,[1]; [4],1.6 nM
same,PGF1α concentration in plasma,[1]; [4],0.25^‡ nM
same,PGF2α concentration in plasma,[1]; [4],0.77^‡ nM
same,TXB2 concentration in plasma,[1]; [4],4.2 nM
same,"effect on COX–1 dependent PGE2 formation, cell-free enzyme assay",[2],dose-dependently decreased; also recorded: inhibited
same,IC50,"[2]; calculated based on PGE2, n = 3, read-out: IC50 (95% CI), COX–1 enzyme assay",1600 nM
